Experimental data published in US20120100073A1, “PET RADIOTRACERS FOR IMAGING FATTY ACID METABOLISM AND STORAGE” (WASHINGTON UNIVERSITY, priority 2009, published 2012).

How the values were obtained:
[1] = previous studies; rapid phase = oxidation, slow phase = storage; cited from earlier work
β-oxidation = settings: literature ref. 17, cited from earlier work
[2] = microPET imaging and myocardial time-activity curves (tracer kinetics) in a fed rat; type: in vivo
Experimental: Animal Preparation. All animal procedures are conducted in compliance with the guidelines for the care and use of research animals established by the Animal Studies Committee of Washington University. Animal preparation is performed as described previously.^24-26 Rats are housed in metabolism cages and anesthetized by inhalation of […] isoflurane administered via an induction chamber. Anesthesia can be maintained throughout the imaging session by delivering 1%-1.5% isoflurane via a custom-designed nose cone. Venous access is via the right jugular vein. Body temperature can be maintained using a circulating water blanket and a heat lamp. Heart and respiration rates can be monitored throughout the process.
PET Acquisition. The animals can be secured in a custom-designed acrylic restraining device and placed inside the field of view of the small-animal imaging PET scanner. Imaging acquisition starts Ss after a bolus injection of tracer via the right jugular catheter. The imaging protocol consists of dynamic acquisition of microPET images of ^11C-palmitate (5-7mCI) followed by ^18F-FAA or by ^18F-VLDL (5-7mCi) alone. Dynamic mage acquisition during ^11C-palmitate and either ^18F-FAA or ^18F-FAA-VLDL can be 30 and 60 min, respectively. The total time of the imaging session can be ˜3 hrs. Three whole-blood arterial samples are collected throughout the study to measure whole blood glucose (5 μL), free fatty acid (20 μL), and insulin (5 μL) levels to confirm the metabolic state of the animals,
Image Processing/Analysis. Dynamic images can be reconstructed using filtered backprojection with a 2.5 zoom on the heart and 40 frames per imaging session. The input function is reconstructed by applying the hybrid image-blood-sampling algorithm as described previously.^25 A myocardial region of interest is placed to generate a myocardial time-activity curve (TAC). The ^18F-FAA and ^18F-FAA-VLDL blood and myocardial TACs can be compared with the ^11C-palmitate TACs for both defiing characteristics (e.g., height and shape) as well as similar kinetics based exponential curve-fitting algorithms. […]

## O=C(O)CCCCCCCCCCCCCCc1ccc(I)cc1 [^123I-lPPA, 15-(p-iodophenyl)-pentadecanoic acid]
[1]
  washout kinetics from heart: biphasic washout kinetics from heart

## O=C(O)CCSCCCCCCCCCCCC[18F] [FTP, ^18F-fluoro-thia-palmitate]
β-oxidation; normal oxygenation and hypoxic conditions
  deposition versus β-oxidation: proportional to β-oxidation under normal oxygenation and hypoxic conditions

## CCCCCCCCCCCCCCC[11C](=O)O [^11C-palmitate]
[1]
  washout kinetics from heart: biphasic washout kinetics from heart
[2]; blood and myocardial TACs, fed rat
  myocardial tracer uptake and washout pattern: significant tracer uptake with rapid bi-phasic washout
[2]; blood and myocardium, up to 60 mins post-tracer injection
  tracer clearance late after injection: tracer increased in both, blood and myocardium, 25 mins post tracer injection

## CCCC([18F])CCCCCCCSCCCCC(=O)O (racemic) [FTHA, 14-(R,S)-^18F-fluoro-6-thiaheptadecanoic acid]
β-oxidation
  uptake and retention versus inhibition of β-oxidation by hypoxia: insensitive to the inhibition of β-oxidation by hypoxia

## O=C(O)CCCCCCCCCCCCCCc1ccc(OCC[18F])cc1 [^18F-FAA]
[2]; rat, in vivo
  tracer clearance late after injection: still prevalent at 60 mins post-tracer injection
